Values of other authors in patent publication US20190192686A1, “TARGETED NANODROPLET EMULSIONS FOR TREATING CANCER” (The University of Louisville Research Foundation,, priority 2016, published 2019).

Target: plasma membrane nucleolin (Homo sapiens, UniProt P19338)
Set-up: key: ^1: Indicates a good plasma membrane nucleolin-binding GRO.; ^2: Indicates a nucleolin control (non-plasma membrane nucleolin binding)
Conditions: superscript designation in Table 1

plasma membrane nucleolin, sequence (P19338 whole entry): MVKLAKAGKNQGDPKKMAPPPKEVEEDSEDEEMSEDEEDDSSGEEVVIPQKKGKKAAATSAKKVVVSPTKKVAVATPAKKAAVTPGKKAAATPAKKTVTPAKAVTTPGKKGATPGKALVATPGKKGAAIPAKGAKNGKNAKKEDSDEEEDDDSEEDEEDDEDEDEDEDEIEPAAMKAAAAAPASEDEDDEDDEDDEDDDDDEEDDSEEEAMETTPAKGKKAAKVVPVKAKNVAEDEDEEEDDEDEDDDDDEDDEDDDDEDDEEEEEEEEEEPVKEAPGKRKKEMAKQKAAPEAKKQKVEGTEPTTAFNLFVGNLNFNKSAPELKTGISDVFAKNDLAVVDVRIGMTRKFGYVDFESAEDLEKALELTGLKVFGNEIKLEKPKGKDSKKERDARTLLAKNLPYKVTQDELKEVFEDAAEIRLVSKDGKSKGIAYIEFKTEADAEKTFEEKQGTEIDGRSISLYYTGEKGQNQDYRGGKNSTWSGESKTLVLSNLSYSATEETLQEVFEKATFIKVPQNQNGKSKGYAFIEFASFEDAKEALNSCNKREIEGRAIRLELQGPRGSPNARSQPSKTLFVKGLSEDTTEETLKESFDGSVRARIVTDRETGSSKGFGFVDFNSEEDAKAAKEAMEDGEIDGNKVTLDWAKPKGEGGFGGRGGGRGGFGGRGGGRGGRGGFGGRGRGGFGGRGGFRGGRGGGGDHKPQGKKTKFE

Row | Substance | plasma membrane nucleolin binding
1 | GRO K: ttggggttgg ggttggggtt gggg (DNA TTGGGGTTGGGGTTGGGGTTGGGG; listed as DNA, chemistry not fully specified) | GRO K^1
2 | GRO P: tggggt | GRO P^2
3 | GRO O: cctcctcctc cttctcctcc tcctcc (CCTCCTCCTCCTTCTCCTCCTCCTCC; aptamer; listed as DNA, chemistry not fully specified) | GRO O^2
4 | GRO M: ggttttggtt ttggttttgg ttttgg (GGTTTTGGTTTTGGTTTTGGTTTTGG; aptamer; listed as DNA, chemistry not fully specified) | GRO M^1
5 | GRO26B: ggtggtggtg gttgtggtgg tggtgg | GRO26B^1
6 | GRO T: ggggttgggg tgtggggttg ggg (GGGGTTGGGGTGTGGGGTTGGGG; listed as DNA, chemistry not given here) | GRO T^2
7 | GRO G: ggttggtgtg gttgg | GRO G^1
8 | GRO S: tagg (TAGG; listed as DNA, chemistry not given here) | GRO S^2
9 | GRO I: gggttttggg (DNA GGGTTTTGGG; listed as DNA, chemistry not fully specified) | GRO I^1
10 | GRO15B: ttgggggggg tgggt (TTGGGGGGGGTGGGT; listed as DNA, chemistry not fully specified) | GRO15B^2
11 | GRO N: tttcctcctc ctccttctcc tcctcctcc (TTTCCTCCTCCTCCTTCTCCTCCTCCTCC; listed as DNA, chemistry not fully specified) | GRO N^2
12 | GRO R: gcggtttgcg g (GCGGTTTGCGG; listed as DNA, chemistry not given here) | GRO R^2
13 | GRO J: ggggttttgg ggttttgggg ttttgggg (DNA GGGGTTTTGGGGTTTTGGGGTTTTGGGG; listed as DNA, chemistry not fully specified) | GRO J^1
14 | GRO Q: gcatgct (GCATGCT; listed as DNA, chemistry not given here) | GRO Q^2
15 | GRO H: ggggttttgg gg (DNA GGGGTTTTGGGG; listed as DNA, chemistry not fully specified) | GRO H^1
